Measurements published in ChEMBL document CHEMBL5532672, “Discovery of 2-Ethoxy-5-isobutyramido-N-1-substituted Benzamide Derivatives as Selective Kv2.1 Inhibitors with In Vivo Neuroprotective Effects” (J Med Chem, 2024).

Experiments:
HEK293 [1] = assay: cells; settings: Homo sapiens, HEK293, read-out: Activity; at 10 mM
Description: Anti-apoptotic activity in HEK293 cells harbouring Kv2.1 assessed as viable cells at 10 mM by annexin-V and propidium staining based flow cytometry analysis (Rvb = 99.8% )

[2] = Brain concentration in rat at 1 mg/kg, iv measured after 30 mins; type: ADME, organism-based; settings: read-out: Ct
HEK293 [3] = assay: Anti-apoptotic activity in HEK293 cells harbouring Kv2.1 assessed as viable cells at 3 uM by annexin-V and propidium staining based flow cytometry analysis (reference value: 99.8%); type: functional; settings: Homo sapiens, read-out: Activity
[4] = MRT (0 to t) in Sprague-Dawley rat at 5 mg/kg, po measured upto 24 hrs by LC/MS/MS analysis; type: ADME, organism-based; settings: in vivo
[5] = Terminal elimination half life in Sprague-Dawley rat at 0.5 mg/kg, iv measured upto 24 hrs by LC/MS/MS analysis; type: ADME, organism-based; settings: in vivo, read-out: beta t1/2 (converted)
[6] = molecular target: T1, Voltage-gated potassium channel KCNC1 (Homo sapiens, UniProt P48547); assay: Inhibition of KV3.1 (unknown origin) by whole cell patch-clamp assay
T1 sequence (P48547 whole entry): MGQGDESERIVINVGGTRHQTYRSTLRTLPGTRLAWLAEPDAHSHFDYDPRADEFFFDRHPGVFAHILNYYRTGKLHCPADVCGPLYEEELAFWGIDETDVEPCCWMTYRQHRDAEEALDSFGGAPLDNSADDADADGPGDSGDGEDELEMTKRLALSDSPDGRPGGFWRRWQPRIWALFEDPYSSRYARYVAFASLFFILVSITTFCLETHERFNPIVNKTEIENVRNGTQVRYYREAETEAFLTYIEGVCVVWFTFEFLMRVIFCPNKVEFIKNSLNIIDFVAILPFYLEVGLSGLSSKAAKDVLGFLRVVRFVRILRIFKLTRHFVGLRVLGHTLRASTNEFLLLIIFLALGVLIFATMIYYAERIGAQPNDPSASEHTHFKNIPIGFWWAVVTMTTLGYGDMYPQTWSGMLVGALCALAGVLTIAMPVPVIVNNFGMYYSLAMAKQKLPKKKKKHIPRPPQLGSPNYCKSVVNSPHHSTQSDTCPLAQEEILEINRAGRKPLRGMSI

[7] = Apparent volume of distribution in Sprague-Dawley rat at […], iv measured upto 24 hrs by LC/MS/MS analysis; type: ADME, organism-based; settings: in vivo, read-out: Vz
[8] = Clearance in Sprague-Dawley rat at 0.5 mg/kg, iv measured upto 24 hrs by LC/MS/MS analysis; type: ADME, organism-based; settings: in vivo
HEK293 [9] = assay: Anti-apoptotic activity in HEK293 cells harbouring Kv2.1 assessed as viable cells at 0.3 uM by annexin-V and propidium staining based flow cytometry analysis (reference value: 99.8%); type: functional; settings: Homo sapiens, read-out: Activity
[10] = Brain concentration in rat at 5 mg/kg, po measured after 30 mins; type: ADME, organism-based; settings: read-out: Ct
[11] = Brain concentration in rat at 1 mg/kg, iv measured after 15 mins; type: ADME, organism-based; settings: read-out: Ct
[12] = Plasma concentration in rat at 1 mg/kg, iv measured after 30 mins; type: ADME, organism-based
[13] = AUC (0 to infinity) in Sprague-Dawley rat at 5 mg/kg, po measured upto 24 hrs by LC/MS/MS analysis; type: ADME, organism-based; settings: in vivo
[14] = Oral bioavailability in Sprague-Dawley rat at 5 mg/kg measured upto 24 hrs by LC/MS/MS analysis; type: ADME, organism-based; settings: in vivo
[15] = Cmax in Sprague-Dawley rat at 5 mg/kg, po measured upto 24 hrs by LC/MS/MS analysis; type: ADME, organism-based; settings: in vivo
[16] = Plasma concentration in rat at 1 mg/kg, iv measured after 15 mins; type: ADME, organism-based
[17] = Plasma concentration in rat at 5 mg/kg, po measured after 30 mins; type: ADME, organism-based
[18] = MRT (0 to infinity) in Sprague-Dawley rat at 5 mg/kg, po measured upto 24 hrs by LC/MS/MS analysis; type: ADME, organism-based; settings: in vivo
[19] = molecular target: Voltage-gated inwardly rectifying potassium channel KCNH2 (Homo sapiens, UniProt Q12809); assay: Inhibition of human ERG by whole cell patch-clamp assay; type: toxicity
Voltage-gated inwardly rectifying potassium channel KCNH2, sequence (Q12809 whole entry): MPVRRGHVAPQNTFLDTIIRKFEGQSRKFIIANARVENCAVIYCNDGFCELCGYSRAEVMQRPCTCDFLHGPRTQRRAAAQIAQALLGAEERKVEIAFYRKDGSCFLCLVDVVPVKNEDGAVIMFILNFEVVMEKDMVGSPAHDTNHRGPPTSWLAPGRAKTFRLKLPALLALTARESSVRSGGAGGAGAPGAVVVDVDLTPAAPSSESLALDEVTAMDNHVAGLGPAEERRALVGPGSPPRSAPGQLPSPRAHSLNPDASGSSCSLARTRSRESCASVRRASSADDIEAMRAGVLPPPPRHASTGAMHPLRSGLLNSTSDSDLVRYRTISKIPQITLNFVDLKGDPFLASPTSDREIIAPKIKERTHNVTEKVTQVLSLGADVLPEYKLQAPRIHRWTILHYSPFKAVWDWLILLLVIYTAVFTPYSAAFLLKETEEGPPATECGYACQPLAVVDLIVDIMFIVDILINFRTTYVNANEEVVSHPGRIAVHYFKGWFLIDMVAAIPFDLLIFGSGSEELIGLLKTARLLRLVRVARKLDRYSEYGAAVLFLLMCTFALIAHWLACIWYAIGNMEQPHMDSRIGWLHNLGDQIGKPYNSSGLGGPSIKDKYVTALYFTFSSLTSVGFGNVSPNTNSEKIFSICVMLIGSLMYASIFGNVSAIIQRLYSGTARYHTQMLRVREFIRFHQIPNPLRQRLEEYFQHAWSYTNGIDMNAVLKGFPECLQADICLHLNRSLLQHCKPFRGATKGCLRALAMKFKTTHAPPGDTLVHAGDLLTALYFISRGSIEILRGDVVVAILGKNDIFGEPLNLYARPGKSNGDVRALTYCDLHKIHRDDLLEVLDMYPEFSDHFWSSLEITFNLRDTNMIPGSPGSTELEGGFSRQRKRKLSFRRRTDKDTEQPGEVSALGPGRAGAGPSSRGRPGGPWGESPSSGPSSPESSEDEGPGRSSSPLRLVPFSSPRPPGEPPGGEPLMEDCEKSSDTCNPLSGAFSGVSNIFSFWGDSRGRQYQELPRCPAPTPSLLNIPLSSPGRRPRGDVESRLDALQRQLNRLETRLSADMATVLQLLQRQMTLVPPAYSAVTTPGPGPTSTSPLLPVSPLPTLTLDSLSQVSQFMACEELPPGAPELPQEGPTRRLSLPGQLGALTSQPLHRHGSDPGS

[20] = Cmax in Sprague-Dawley rat at 0.5 mg/kg, iv measured upto 24 hrs by LC/MS/MS analysis; type: ADME, organism-based; settings: in vivo
[21] = AUC (0 to infinity) in Sprague-Dawley rat at 0.5 mg/kg, iv measured upto 24 hrs by LC/MS/MS analysis; type: ADME, organism-based; settings: in vivo
[22] = Tmax in Sprague-Dawley rat at 5 mg/kg, po measured upto 24 hrs by LC/MS/MS analysis; type: ADME, organism-based; settings: in vivo
[23] = AUC (0 to t) in Sprague-Dawley rat at 5 mg/kg, po measured upto 24 hrs by LC/MS/MS analysis; type: ADME, organism-based; settings: in vivo
[24] = Terminal elimination half life in Sprague-Dawley rat at 5 mg/kg, po measured upto 24 hrs by LC/MS/MS analysis; type: ADME, organism-based; settings: in vivo, read-out: beta t1/2 (converted)
[25] = molecular target: Potassium voltage-gated channel subfamily A member 5 (Homo sapiens, UniProt P22460); assay: Inhibition of KV1.5 (unknown origin) by whole cell patch-clamp assay
Potassium voltage-gated channel subfamily A member 5, sequence (P22460 whole entry): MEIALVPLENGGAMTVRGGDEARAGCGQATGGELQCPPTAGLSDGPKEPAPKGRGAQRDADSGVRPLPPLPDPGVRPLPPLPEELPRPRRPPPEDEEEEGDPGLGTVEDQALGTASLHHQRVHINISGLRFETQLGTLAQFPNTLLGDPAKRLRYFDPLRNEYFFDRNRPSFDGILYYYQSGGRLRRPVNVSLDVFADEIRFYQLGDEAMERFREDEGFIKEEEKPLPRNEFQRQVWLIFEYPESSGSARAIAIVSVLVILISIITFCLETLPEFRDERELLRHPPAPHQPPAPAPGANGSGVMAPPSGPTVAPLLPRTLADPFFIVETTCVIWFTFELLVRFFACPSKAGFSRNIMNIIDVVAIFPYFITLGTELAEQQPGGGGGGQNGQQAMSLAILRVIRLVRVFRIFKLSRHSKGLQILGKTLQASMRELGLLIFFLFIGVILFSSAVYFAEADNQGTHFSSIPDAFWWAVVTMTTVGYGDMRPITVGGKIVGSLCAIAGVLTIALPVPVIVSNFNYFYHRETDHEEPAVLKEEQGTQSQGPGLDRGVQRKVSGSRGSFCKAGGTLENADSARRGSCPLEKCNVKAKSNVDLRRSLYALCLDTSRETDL

[26] = AUC (0 to t) in Sprague-Dawley rat at 0.5 mg/kg, iv measured upto 24 hrs by LC/MS/MS analysis; type: ADME, organism-based; settings: in vivo
[27] = MRT (0 to infinity) in Sprague-Dawley rat at 0.5 mg/kg, iv measured upto 24 hrs by LC/MS/MS analysis; type: ADME, organism-based; settings: in vivo
[28] = molecular target: T2, Potassium voltage-gated channel subfamily B member 1 (Homo sapiens, UniProt Q14721); assay: Inhibition of human KV2.1 stably expressed in HEK293 cells by whole cell patch-clamp assay; type: cell-based
T2 sequence (Q14721 whole entry): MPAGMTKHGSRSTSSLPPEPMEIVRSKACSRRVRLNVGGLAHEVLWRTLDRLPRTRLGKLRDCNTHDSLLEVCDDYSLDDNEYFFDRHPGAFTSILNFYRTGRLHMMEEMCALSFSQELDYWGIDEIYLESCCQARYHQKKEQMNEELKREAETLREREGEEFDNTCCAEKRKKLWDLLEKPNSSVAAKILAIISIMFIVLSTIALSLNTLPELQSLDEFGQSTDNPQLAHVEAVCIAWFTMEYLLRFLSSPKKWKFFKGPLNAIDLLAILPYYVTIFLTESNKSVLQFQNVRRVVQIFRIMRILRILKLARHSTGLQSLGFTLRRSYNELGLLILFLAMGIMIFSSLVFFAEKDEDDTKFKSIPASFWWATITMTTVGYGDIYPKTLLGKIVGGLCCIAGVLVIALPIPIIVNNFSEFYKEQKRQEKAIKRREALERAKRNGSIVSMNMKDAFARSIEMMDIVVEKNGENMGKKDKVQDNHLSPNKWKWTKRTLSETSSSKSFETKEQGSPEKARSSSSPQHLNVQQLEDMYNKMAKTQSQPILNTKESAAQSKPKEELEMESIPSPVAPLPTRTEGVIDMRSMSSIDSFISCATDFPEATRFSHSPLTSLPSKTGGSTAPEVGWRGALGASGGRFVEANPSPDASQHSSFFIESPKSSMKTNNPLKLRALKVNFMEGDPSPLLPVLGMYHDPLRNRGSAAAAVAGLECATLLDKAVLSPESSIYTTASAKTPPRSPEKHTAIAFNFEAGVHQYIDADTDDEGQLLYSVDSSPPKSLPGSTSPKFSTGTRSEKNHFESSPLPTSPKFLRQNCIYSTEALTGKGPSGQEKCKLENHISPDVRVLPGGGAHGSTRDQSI

Which viability at 10000 µM (HEK293 [1]) does the source give for `CC[N+](CC)(CC)CC` [TETRYLAMMONIUM] here?
The viability at 10000 µM was 58.4%.

Which results are given for `CCOc1ccc(NC(=O)C(C)C)cc1C(=O)NC(C)c1cccc(NC)c1` (stereo not drawn)?
concentration at 0.5 h [2]: 14.6 ng/g; viability at 3 µM (HEK293 [3]): 55.4%; MRT last at 24 h [4]: 2.05 h; half-life [5]: 0.51 h; IC50 [6]: > 30 µM; Vd [7]: 2.1 L/kg; clearance [8]: 48 mL/min/kg; viability at 0.3 µM (HEK293 [9]): 62%; concentration at 0.5 h [10]: 54.9 ng/g; concentration at 0.25 h [11]: 38.2 ng/g; concentration at 0.5 h [12]: 235 ng/mL; AUC(0-inf) [13]: 355 ng·h/mL; bioavailability [14]: 20.4%; Cmax [15]: 147 ng/mL; concentration at 0.25 h [16]: 539 ng/mL; concentration at 0.5 h [17]: 580 ng/mL; MRT inf [18]: 2.52 h; IC50 [19]: 30 µM; Cmax [20]: 693 ng/mL; AUC(0-inf) [21]: 174 ng·h/mL; Tmax [22]: 0.65 h; AUC(0-t) at 24 h [23]: 337 ng·h/mL; half-life [24]: 1.89 h; IC50 [25]: 9.2 µM; AUC(0-t) at 24 h [26]: 174 ng·h/mL; MRT inf [27]: 1.39 h; IC50 [28]: 0.07 µM
